Measurements: ChEMBL document CHEMBL4138088, “Novel 1-(7-ethoxy-1-benzofuran-2-yl) substituted chalcone derivatives: Synthesis, characterization and anticancer activity” (Eur J Med Chem, 2017)
pIC50: −log10 of the molar value. One block for each compound: values may come before it. Calls of active or inactive are those of the source. The rule behind the calls is not given here.

What was measured:
[1] = system: SW-620; assay: Antiproliferative activity against human SW620 cells after 48 hrs by MTT assay; format: functional, cell-based; settings: SW-620, 48 h
[2] = system: CT26.WT; assay: Antiproliferative activity against mouse CT26.WT cells after 48 hrs by MTT assay; format: functional, cell-based
[3] = system: HCT-116; assay: Antiproliferative activity against human HCT116 cells after 48 hrs by MTT assay; format: functional, cell-based; settings: HCT-116, 48 h
[4] = system: A549; assay: Growth inhibition of human A549 cells at 20 uM after 72 hrs by ATP bioluminescence assay; format: functional, cell-based
[5] = system: A549; assay: Induction of mitochondrial membrane depolarization in human A549 cells assessed as live cells at 20 uM after 48 hrs by 7-AAD/Muse mito-potential dye-based assay (reference value: 85.84%); format: functional
[6] = system: MCF7; assay: Induction of apoptosis in human MCF7 cells assessed as late apoptotic cells at 20 uM after 48 hrs by caspase 3/7 staining-based flow cytometry (reference value: 10.80%); format: functional
[7] = system: PC-3; assay: Induction of apoptosis in human PC3 cells assessed as early apoptotic cells at 20 uM after 48 hrs by annexin V-propidium iodide staining-based flow cytometry (reference value: 1.55%); format: functional
[8] = system: PC-3; assay: Growth inhibition of human PC3 cells after 72 hrs by ATP bioluminescence assay; format: functional, cell-based; settings: PC-3, 72 h
[9] = system: MCF7; assay: Induction of mitochondrial membrane depolarization in human MCF7 cells assessed as live cells at 20 uM after 48 hrs by 7-AAD/Muse mito-potential dye-based assay (reference value: 78.59%); format: functional
[10] = system: PC-3; assay: Induction of mitochondrial membrane depolarization in human PC3 cells assessed as depolarized live cells at 20 uM after 48 hrs by 7-AAD/Muse mito-potential dye-based assay (reference value: 12.60%); format: functional
[11] = system: MCF7; assay: Induction of apoptosis in human MCF7 cells assessed as early apoptotic cells at 20 uM after 48 hrs by annexin V-propidium iodide staining-based flow cytometry (reference value: 2.15%); format: functional
[12] = system: MCF7; assay: Induction of apoptosis in human MCF7 cells assessed as necrotic cells at 20 uM after 48 hrs by annexin V-propidium iodide staining-based flow cytometry (reference value: 0.35%); format: functional
[13] = system: PC-3; assay: Induction of morphological changes in human PC3 cells assessed as reduction in cell density at 20 uM after 72 hrs by phase contrast microscopic method; format: functional, cell-based
[14] = system: PC-3; assay: Induction of mitochondrial membrane depolarization in human PC3 cells assessed as depolarized dead cells at 20 uM after 48 hrs by 7-AAD/Muse mito-potential dye-based assay (reference value: 2.05%); format: functional
[15] = system: MCF7; assay: Induction of morphological changes in human MCF7 cells assessed as reduction in cell density at 20 uM after 72 hrs by phase contrast microscopic method; format: functional, cell-based
[16] = system: A549; assay: Induction of ROS generation in human A549 cells assessed as accumulation at M2 phase at 20 uM after 48 hrs flow cytometry (reference value: 1.07%); format: functional
[17] = system: MCF7; assay: Induction of apoptosis in human MCF7 cells assessed as late apoptotic cells at 20 uM after 48 hrs by annexin V-propidium iodide staining-based flow cytometry (reference value: 7.25%); format: functional
[18] = system: PC-3; assay: Induction of apoptosis in human PC3 cells assessed as early apoptotic cells at 20 uM after 48 hrs by caspase 3/7 staining-based flow cytometry (reference value: 0.3%); format: functional
[19] = system: MCF7; assay: Induction of ROS generation in human MCF7 cells assessed as accumulation at M2 phase at 20 uM after 48 hrs flow cytometry (reference value: 2.33%); format: functional
[20] = system: A549; assay: Induction of mitochondrial membrane depolarization in human A549 cells assessed as dead cells at 20 uM after 48 hrs by 7-AAD/Muse mito-potential dye-based assay (reference value: 2.44%); format: functional
[21] = system: PC-3; assay: Induction of apoptosis in human PC3 cells assessed as late apoptotic cells at 20 uM after 48 hrs by caspase 3/7 staining-based flow cytometry (reference value: 1.90%); format: functional
[22] = system: A549; assay: Induction of apoptosis in human A549 cells assessed as late apoptotic cells at 20 uM after 48 hrs by caspase 3/7 staining-based flow cytometry (reference value: 2.56%); format: functional
[23] = system: A549; assay: Growth inhibition of human A549 cells at 20 uM after 72 hrs by SRB assay; format: functional, cell-based
[24] = system: MCF7; assay: Induction of apoptosis in human MCF7 cells assessed as viable cells at 20 uM after 48 hrs by annexin V-propidium iodide staining-based flow cytometry (reference value: 90.25%); format: functional; settings: MCF7, 48 h, read-out: Activity
[25] = system: A549; assay: Induction of mitochondrial membrane depolarization in human A549 cells assessed as depolarized dead cells at 20 uM after 48 hrs by 7-AAD/Muse mito-potential dye-based assay (reference value: 7.88%); format: functional
[26] = system: MCF7; assay: Induction of mitochondrial membrane depolarization in human MCF7 cells assessed as depolarized live cells at 20 uM after 48 hrs by 7-AAD/Muse mito-potential dye-based assay (reference value: 6.67%); format: functional
[27] = system: MCF7; assay: Growth inhibition of human MCF7 cells after 72 hrs by ATP bioluminescence assay; format: functional, cell-based; settings: MCF7, 72 h
[28] = system: MCF7; assay: Induction of ROS generation in human MCF7 cells assessed as accumulation at M1 phase at 20 uM after 48 hrs flow cytometry (reference value: 97.67%); format: functional
[29] = system: PC-3; assay: Induction of ROS generation in human PC3 cells assessed as accumulation at M1 phase at 20 uM after 48 hrs flow cytometry (reference value: 99.67%); format: functional
[30] = system: PC-3; assay: Induction of ROS generation in human PC3 cells assessed as accumulation at M2 phase at 20 uM after 48 hrs flow cytometry (reference value: 0.33%); format: functional
[31] = system: PC-3; assay: Growth inhibition of human PC3 cells at 20 uM after 72 hrs by ATP bioluminescence assay; format: functional, cell-based
[32] = system: PC-3; assay: Induction of apoptosis in human PC3 cells assessed as viable cells at 20 uM after 48 hrs by caspase 3/7 staining-based flow cytometry (reference value: 94.75%); format: functional; settings: PC-3, 48 h, read-out: Activity
[33] = system: A549; assay: Induction of apoptosis in human A549 cells assessed as early apoptotic cells at 20 uM after 48 hrs by annexin V-propidium iodide staining-based flow cytometry (reference value: 3.75%); format: functional
[34] = system: A549; assay: Induction of apoptosis in human A549 cells assessed as necrotic cells at 20 uM after 48 hrs by annexin V-propidium iodide staining-based flow cytometry (reference value: 1.4%); format: functional
[35] = system: A549; assay: Induction of ROS generation in human A549 cells assessed as accumulation at M1 phase at 20 uM after 48 hrs flow cytometry (reference value: 97.60%); format: functional
[36] = system: PC-3; assay: Induction of apoptosis in human PC3 cells assessed as viable cells at 20 uM after 48 hrs by annexin V-propidium iodide staining-based flow cytometry (reference value: 94.55%); format: functional; settings: PC-3, 48 h, read-out: Activity
[37] = system: A549; assay: Induction of morphological changes in human A549 cells assessed as reduction in cell density at 20 uM after 72 hrs by phase contrast microscopic method; format: functional, cell-based
[38] = system: A549; assay: Induction of mitochondrial membrane depolarization in human A549 cells assessed as depolarized live cells at 20 uM after 48 hrs by 7-AAD/Muse mito-potential dye-based assay (reference value: 3.84%); format: functional
[39] = system: MCF7; assay: Induction of apoptosis in human MCF7 cells assessed as early apoptotic cells at 20 uM after 48 hrs by caspase 3/7 staining-based flow cytometry (reference value: 2.65%); format: functional
[40] = system: A549; assay: Induction of apoptosis in human A549 cells assessed as late apoptotic cells at 20 uM after 48 hrs by annexin V-propidium iodide staining-based flow cytometry (reference value: 3.05%); format: functional
[41] = system: A549; assay: Induction of apoptosis in human A549 cells assessed as necrotic cells at 20 uM after 48 hrs by caspase 3/7 staining-based flow cytometry (reference value: 1.50%); format: functional
[42] = system: PC-3; assay: Induction of mitochondrial membrane depolarization in human PC3 cells assessed as dead cells at 20 uM after 48 hrs by 7-AAD/Muse mito-potential dye-based assay (reference value: 2.20%); format: functional
[43] = system: A549; assay: Induction of apoptosis in human A549 cells assessed as viable cells at 20 uM after 48 hrs by annexin V-propidium iodide staining-based flow cytometry (reference value: 91.80%); format: functional; settings: A549, 48 h, read-out: Activity
[44] = system: A549; assay: Induction of apoptosis in human A549 cells assessed as early apoptotic cells at 20 uM after 48 hrs by caspase 3/7 staining-based flow cytometry (reference value: 1.70%); format: functional
[45] = system: MCF7; assay: Induction of mitochondrial membrane depolarization in human MCF7 cells assessed as dead cells at 20 uM after 48 hrs by 7-AAD/Muse mito-potential dye-based assay (reference value: 2.30%); format: functional
[46] = system: PC-3; assay: Induction of apoptosis in human PC3 cells assessed as late apoptotic cells at 20 uM after 48 hrs by annexin V-propidium iodide staining-based flow cytometry (reference value: 1.45%); format: functional
[47] = system: PC-3; assay: Induction of apoptosis in human PC3 cells assessed as necrotic cells at 20 uM after 48 hrs by caspase 3/7 staining-based flow cytometry (reference value: 3.05%); format: functional
[48] = system: PC-3; assay: Induction of apoptosis in human PC3 cells assessed as necrotic cells at 20 uM after 48 hrs by annexin V-propidium iodide staining-based flow cytometry (reference value: 2.45%); format: functional
[49] = system: MCF7; assay: Induction of apoptosis in human MCF7 cells assessed as viable cells at 20 uM after 48 hrs by caspase 3/7 staining-based flow cytometry (reference value: 85.30%); format: functional; settings: MCF7, 48 h, read-out: Activity
[50] = system: MCF7; assay: Growth inhibition of human MCF7 cells at 20 uM after 72 hrs by SRB assay; format: functional, cell-based
[51] = system: MCF7; assay: Induction of apoptosis in human MCF7 cells assessed as necrotic cells at 20 uM after 48 hrs by caspase 3/7 staining-based flow cytometry (reference value: 1.25%); format: functional
[52] = system: PC-3; assay: Induction of mitochondrial membrane depolarization in human PC3 cells assessed as live cells at 20 uM after 48 hrs by 7-AAD/Muse mito-potential dye-based assay (reference value: 83.15%); format: functional
[53] = system: MCF7; assay: Growth inhibition of human MCF7 cells at 20 uM after 72 hrs by ATP bioluminescence assay; format: functional, cell-based
[54] = system: A549; assay: Induction of apoptosis in human A549 cells assessed as viable cells at 20 uM after 48 hrs by caspase 3/7 staining-based flow cytometry (reference value: 94.25%); format: functional; settings: A549, 48 h, read-out: Activity
[55] = system: MCF7; assay: Induction of mitochondrial membrane depolarization in human MCF7 cells assessed as depolarized dead cells at 20 uM after 48 hrs by 7-AAD/Muse mito-potential dye-based assay (reference value: 12.43%); format: functional
[56] = system: A549; assay: Growth inhibition of human A549 cells after 72 hrs by ATP bioluminescence assay; format: functional, cell-based; settings: A549, 72 h
[57] = system: HCT-116; assay: Antiproliferative activity against human HCT116 cells after 6 hrs by MTT assay; format: functional, cell-based; settings: HCT-116, 6 h
[58] = system: HCT-116; assay: Antiproliferative activity against human HCT116 cells after 12 hrs by MTT assay; format: functional, cell-based; settings: HCT-116, 12 h
[59] = system: HCT-116; assay: Antiproliferative activity against human HCT116 cells after 24 hrs by MTT assay; format: functional, cell-based; settings: HCT-116, 24 h

pIC50 [1]: 4.93
pIC50 [2]: 5.47
pIC50 [3]: 4.59
Compound: COc1ccccc1/C=C/C(=O)c1ccc(O)c(O)c1

Compound: CCOc1cccc2cc(C(=O)/C=C/c3ccc(N(C)C)cc3)oc12
growth inhibition (GI) [4]: Active
Activity [5]: 15.29%
Activity [6]: 41%
Activity [7]: 6.45%
pIC50 [8]: 5.00
Activity [9]: 24.3%
Activity [10]: 30.5%
Activity [11]: 4.3%
Activity [12]: 0.7%
Activity [13]: Active
Activity [14]: 18.6%
Activity [15]: Active
Activity [16]: 20.67%
Activity [17]: 91.7%
Activity [18]: 0.65%
Activity [19]: 14.87%
Activity [20]: 1.35%
Activity [21]: 11.1%
Activity [22]: 58.7%
growth inhibition (GI) [23]: Active
viability at 20 µM [24]: 3.3%
Activity [25]: 32.78%
Activity [26]: 7.9%
pIC50 [27]: 5.70
Activity [28]: 85.13%
Activity [29]: 98.83%
Activity [30]: 1.17%
growth inhibition (GI) [31]: Active
viability at 20 µM [32]: 51%
Activity [33]: 1.8%
Activity [34]: 0.2%
Activity [35]: 79.33%
viability at 20 µM [36]: 26.9%
Activity [37]: Active
Activity [38]: 50.57%
Activity [39]: 45%
Activity [40]: 95.2%
Activity [41]: 10.5%
Activity [42]: 19.15%
viability at 20 µM [43]: 2.8%
Activity [44]: 7.75%
Activity [45]: 54.3%
Activity [46]: 59.7%
Activity [47]: 37.25%
Activity [48]: 6.9%
viability at 20 µM [49]: 13.8%
growth inhibition (GI) [50]: Active
Activity [51]: 0.26%
Activity [52]: 31.75%
growth inhibition (GI) [53]: Active
viability at 20 µM [54]: 23.1%
Activity [55]: 13.5%
pIC50 [56]: 5.05

pIC50 [57]: 3.22
pIC50 [58]: 3.85
pIC50 [59]: 4.59
pIC50 [3]: 4.80
Compound: COc1cc(/C=C/C(=O)c2cccc(-n3c(C)nc4ccccc4c3=O)c2)ccc1O

Compound: CCOc1cccc2cc(C(=O)/C=C/c3cccs3)oc12
growth inhibition (GI) [50]: Active
growth inhibition (GI) [53]: Active
